Literature values in patent US20100317631A1, “Gel Composition and Transcrotal Application of a Composition for the Treatment of Hypogonadism” (Dr. August Wolff GmbH & Co. Arzneimittel, priority 2000, published 2010).

[1] = intra muscular, standard dosage 250 mg

CCCCCCC(=O)O[C@H]1CC[C@H]2[C@@H]3CCC4=CC(=O)CC[C@]4(C)[C@H]3CC[C@]12C [testosterone enanthat]
terminal half-time value (intra muscular administration): 4.5 days | testosterone concentrations in serum achieved [1]: up to 50 nmol/l | time at which serum testosterone passes the lower limit of normal range [1]: > 12 days
